PubChem BioAssay AID1259407 (Chemical Carcinogenesis Research Information System (CCRIS), 2018)
Calls of active or inactive are those of the source. The rule behind the calls is not given here.

System: CCRIS mutagenicity, Ames/micronucleus/aberration tests
Test: CCRIS mutagenicity studies
[1] = Test System: AMES SALMONELLA TYPHIMURIUM, Strain/Indicator: TA97, Metabolic Activation: NONE, Method: PREINCUBATION
[2] = Test System: AMES SALMONELLA TYPHIMURIUM, Strain/Indicator: TA102, Metabolic Activation: NONE, Method: PREINCUBATION

With `O=[N+]([O-])c1ccc(O)c([N+](=O)[O-])c1` the mutagenic call (End Point: IN VITRO CHROMOSOMAL ABERRATIONS, Test System: CHO CELLS, Metabolic Activation: NONE) was “active; positive”, the mutagenic call (End Point: IN VITRO CHROMOSOMAL ABERRATIONS, Test System: HUMAN PERIPHERAL LYMPHOCYTES, Metabolic Activation: NONE) was “active; positive” and the mutagenic call (End Point: IN VITRO CHROMOSOMAL ABERRATIONS, Test System: TK6 HUMAN LYMPHOBLASTS, Metabolic Activation: NONE) was “inactive; negative”. The mutagenic call (End Point: In vitro micronucleus, Test System: Mouse lymphoma L5178Y cells, Metabolic Activation: None) was “active; positive”, the mutagenic call (Test System: AMES SALMONELLA TYPHIMURIUM, Strain/Indicator: TA97, Metabolic Activation: HAMSTER, LIVER, S-9, AROCLOR 1254 (10%), Method: PREINCUBATION) was “inactive; negative” and the mutagenic call (Test System: AMES SALMONELLA TYPHIMURIUM, Strain/Indicator: TA97, Metabolic Activation: HAMSTER, LIVER, S-9, AROCLOR 1254 (30%), Method: PREINCUBATION) was “inactive; negative”. The mutagenic call [1] was “inactive; negative”, the mutagenic call (Test System: AMES SALMONELLA TYPHIMURIUM, Strain/Indicator: TA97, Metabolic Activation: RAT, LIVER, S-9, AROCLOR 1254 (10%), Method: PREINCUBATION) was “inactive; negative” and the mutagenic call (Test System: AMES SALMONELLA TYPHIMURIUM, Strain/Indicator: TA97, Metabolic Activation: RAT, LIVER, S-9, AROCLOR 1254 (30%), Method: PREINCUBATION) was “inactive; negative”. The mutagenic call (Test System: AMES SALMONELLA TYPHIMURIUM, Strain/Indicator: TA98, Metabolic Activation: HAMSTER, LIVER, S-9, AROCLOR 1254 (10%), Method: PREINCUBATION) was “inactive; negative”, the mutagenic call (Test System: AMES SALMONELLA TYPHIMURIUM, Strain/Indicator: TA98, Metabolic Activation: HAMSTER, LIVER, S-9, AROCLOR 1254 (30%), Method: PREINCUBATION) was “inactive; negative” and the mutagenic call (Test System: AMES SALMONELLA TYPHIMURIUM, Strain/Indicator: TA98, Metabolic Activation: NONE, Method: PREINCUBATION) was “inactive; negative”. The mutagenic call (Test System: AMES SALMONELLA TYPHIMURIUM, Strain/Indicator: TA98, Metabolic Activation: RAT, LIVER, S-9, AROCLOR 1254 (10%), Method: PREINCUBATION) was “inactive; negative”, the mutagenic call (Test System: AMES SALMONELLA TYPHIMURIUM, Strain/Indicator: TA98, Metabolic Activation: RAT, LIVER, S-9, AROCLOR 1254 (30%), Method: PREINCUBATION) was “inactive; negative” and the mutagenic call (Test System: AMES SALMONELLA TYPHIMURIUM, Strain/Indicator: TA98, Metabolic Activation: RAT, LIVER, S-9, KANECHLOR 500, Method: PREINCUBATION) was “inactive; negative”. For the same compound, the mutagenic call (Test System: AMES SALMONELLA TYPHIMURIUM, Strain/Indicator: TA98, Metabolic Activation: RAT, LIVER, S-9, PHENOBARBITAL AND BETA-NAPHTHOFLAVONE, Method: PREINCUBATION) was “inactive; negative”, the mutagenic call (Test System: AMES SALMONELLA TYPHIMURIUM, Strain/Indicator: TA100, Metabolic Activation: HAMSTER, LIVER, S-9, AROCLOR 1254 (10%), Method: PREINCUBATION) was “inactive; negative” and the mutagenic call (Test System: AMES SALMONELLA TYPHIMURIUM, Strain/Indicator: TA100, Metabolic Activation: HAMSTER, LIVER, S-9, AROCLOR 1254 (30%), Method: PREINCUBATION) was “inactive; negative”. For the same compound, the mutagenic call (Test System: AMES SALMONELLA TYPHIMURIUM, Strain/Indicator: TA100, Metabolic Activation: NONE, Method: PREINCUBATION) was “inactive; negative”, the mutagenic call (Test System: AMES SALMONELLA TYPHIMURIUM, Strain/Indicator: TA100, Metabolic Activation: RAT, LIVER, S-9, AROCLOR 1254 (10%), Method: PREINCUBATION) was “inactive; negative” and the mutagenic call (Test System: AMES SALMONELLA TYPHIMURIUM, Strain/Indicator: TA100, Metabolic Activation: RAT, LIVER, S-9, AROCLOR 1254 (30%), Method: PREINCUBATION) was “inactive; negative”. For the same compound, the mutagenic call (Test System: AMES SALMONELLA TYPHIMURIUM, Strain/Indicator: TA100, Metabolic Activation: RAT, LIVER, S-9, KANECHLOR 500, Method: PREINCUBATION) was “inactive; negative”, the mutagenic call (Test System: AMES SALMONELLA TYPHIMURIUM, Strain/Indicator: TA100, Metabolic Activation: RAT, LIVER, S-9, PHENOBARBITAL AND BETA-NAPHTHOFLAVONE, Method: PREINCUBATION) was “inactive; negative” and the mutagenic call [2] was “inactive; negative”. For the same compound, the mutagenic call (Test System: AMES SALMONELLA TYPHIMURIUM, Strain/Indicator: TA102, Metabolic Activation: RAT, LIVER, S-9, PHENOBARBITAL AND BETA-NAPHTHOFLAVONE, Method: PREINCUBATION) was “inactive; negative”, the mutagenic call (Test System: AMES SALMONELLA TYPHIMURIUM, Strain/Indicator: TA104, Metabolic Activation: NONE, Method: PREINCUBATION) was “inactive; negative” and the mutagenic call (Test System: AMES SALMONELLA TYPHIMURIUM, Strain/Indicator: TA104, Metabolic Activation: RAT, LIVER, S-9, PHENOBARBITAL AND BETA-NAPHTHOFLAVONE, Method: PREINCUBATION) was “inactive; negative”. For the same compound, the mutagenic call (Test System: AMES SALMONELLA TYPHIMURIUM, Strain/Indicator: TA1535, Metabolic Activation: HAMSTER, LIVER, S-9, AROCLOR 1254 (10%), Method: PREINCUBATION) was “inactive; negative”, the mutagenic call (Test System: AMES SALMONELLA TYPHIMURIUM, Strain/Indicator: TA1535, Metabolic Activation: HAMSTER, LIVER, S-9, AROCLOR 1254 (30%), Method: PREINCUBATION) was “inactive; negative” and the mutagenic call (Test System: AMES SALMONELLA TYPHIMURIUM, Strain/Indicator: TA1535, Metabolic Activation: RAT, LIVER, S-9, AROCLOR 1254 (10%), Method: PREINCUBATION) was “inactive; negative”. For the same compound, the mutagenic call (Test System: AMES SALMONELLA TYPHIMURIUM, Strain/Indicator: TA1535, Metabolic Activation: RAT, LIVER, S-9, AROCLOR 1254 (30%), Method: PREINCUBATION) was “inactive; negative”, the mutagenic call (Test System: AMES SALMONELLA TYPHIMURIUM, Strain/Indicator: TA1535, Metabolic Activation: RAT, LIVER, S-9, PHENOBARBITAL AND BETA-NAPHTHOFLAVONE, Method: PREINCUBATION) was “inactive; negative” and the mutagenic call (Test System: AMES SALMONELLA TYPHIMURIUM, Strain/Indicator: TA1537, Metabolic Activation: HAMSTER, LIVER, S-9, AROCLOR 1254 (30%), Method: PREINCUBATION) was “inactive; negative”. For the same compound, the mutagenic call (Test System: AMES SALMONELLA TYPHIMURIUM, Strain/Indicator: TA1537, Metabolic Activation: NONE, Method: PREINCUBATION) was “inactive; negative”, the mutagenic call (Test System: AMES SALMONELLA TYPHIMURIUM, Strain/Indicator: TA1537, Metabolic Activation: RAT, LIVER, S-9, AROCLOR 1254 (30%), Method: PREINCUBATION) was “inactive; negative” and the mutagenic call (Test System: AMES SALMONELLA TYPHIMURIUM, Strain/Indicator: TA1537, Metabolic Activation: RAT, LIVER, S-9, PHENOBARBITAL AND BETA-NAPHTHOFLAVONE, Method: PREINCUBATION) was “inactive; negative”. For the same compound, the mutagenic call (Test System: E. COLI, Strain/Indicator: WP2UVRA/PKM101, Metabolic Activation: NONE, Method: PREINCUBATION) was “inactive; negative”, the mutagenic call (Test System: E. COLI, Strain/Indicator: WP2UVRA/PKM101, Metabolic Activation: RAT, LIVER, S-9, PHENOBARBITAL AND BETA-NAPHTHOFLAVONE, Method: PREINCUBATION) was “inactive; negative” and the mutagenic call (Test System: E. COLI, Strain/Indicator: WP2UVRA, Metabolic Activation: NONE, Method: PREINCUBATION) was “inactive; negative”. The mutagenic call (Test System: E. COLI, Strain/Indicator: WP2UVRA, Metabolic Activation: RAT, LIVER, S-9, PHENOBARBITAL AND BETA-NAPHTHOFLAVONE, Method: PREINCUBATION) was “inactive; negative” and the mutagenic call (Test System: Mouse lymphoma, Strain/Indicator: L5178Y (tk+/tk-)/Trifluorothymidine, Metabolic Activation: None, Method: Microtiter) was “active; positive”.

With `[O-][Cl+]O` the mutagenic call (End Point: IN VIVO MICRONUCLEUS, Test System: BONE MARROW POLYCHROMATIC ERYTHROCYTES, Species: MOUSE, Strain/Sex: DDY/MALE, Route: ORAL) was “inactive; negative; significant increase at 150 mg/kg”, the mutagenic call [1] was “inactive; negative” and the mutagenic call (Test System: AMES SALMONELLA TYPHIMURIUM, Strain/Indicator: TA97, Metabolic Activation: RAT, LIVER, S-9, AROCLOR 1254, Method: PREINCUBATION) was “inactive; negative”. The mutagenic call [2] was “inactive; negative” and the mutagenic call (Test System: AMES SALMONELLA TYPHIMURIUM, Strain/Indicator: TA102, Metabolic Activation: RAT, LIVER, S-9, AROCLOR 1254, Method: PREINCUBATION) was “inactive; negative”.
